Read-outs that look alike come from different tables or passages of the source.
Experiments:
Type in all cases: in vivo
Kochia (Kochia scoparia) [1] = assay: Test A preemergence; details: Bassia scoparia, pre-emergence, 240 h; for pest or weed control at 500 g/ha: 500 g ai/ha; for pest or weed control at 125 g/ha: 125 g ai/ha
Procedure, shortened: (§1)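 Ratings of 0 (no effect) to 100 (complete control) come from visual comparison with untreated controls roughly 10 d after treatment. Test chemicals, formulated in a non-phytotoxic solvent mixture with surfactant, were applied either as a preemergence directed soil spray on seeded soil or postemergence to one- to two-leaf plants 2 to 10 cm tall.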

[2] = test system: barnyardgrass (Echinochloa crus-galli); assay: Test A preemergence; details: Echinochloa crus-galli, pre-emergence, 240 h; for pest or weed control at 500 g/ha: 500 g ai/ha; for pest or weed control at 125 g/ha: 125 g ai/ha
Procedure, shortened: as §1

[3] = test system: giant foxtail (Setaria faberii); assay: Test A preemergence; details: Setaria faberi, pre-emergence, 240 h; for pest or weed control at 500 g/ha: 500 g ai/ha; for pest or weed control at 125 g/ha: 125 g ai/ha
Procedure, shortened: as §1

[4] = test system: pigweed (Amaranthus retroflexus); assay: Test A preemergence; details: Amaranthus retroflexus, pre-emergence, 240 h; for pest or weed control at 500 g/ha: 500 g ai/ha; for pest or weed control at 125 g/ha: 125 g ai/ha
[5] = test system: ragweed (common ragweed, Ambrosia elatior); assay: Test A preemergence; details: Ambrosia artemisiifolia, pre-emergence, 240 h; for pest or weed control at 500 g/ha: 500 g ai/ha; for pest or weed control at 125 g/ha: 125 g ai/ha
Procedure, shortened: as §1

[6] = test system: ryegrass, Italian (Italian ryegrass, Lolium multiflorum); assay: Test A preemergence; details: Lolium multiflorum, pre-emergence, 240 h; for pest or weed control at 500 g/ha: 500 g ai/ha; for pest or weed control at 125 g/ha: 125 g ai/ha
Procedure, shortened: as §1

[7] = test system: Galium (catchweed bedstraw, Galium aparine); assay: Test A postemergence; details: Galium, post-emergence, 240 h; for pest or weed control at 125 g/ha: 125 g ai/ha; for pest or weed control at 500 g/ha: 500 g ai/ha, visual injury, 0 to 100 scale (0 no effect, 100 complete control), approx. 10 d, read-out: Plant response rating, Galium
Procedure, shortened: as §1

Kochia (Kochia scoparia) [8] = assay: Test A postemergence; details: Bassia scoparia, post-emergence, 240 h; for pest or weed control at 125 g/ha: 125 g ai/ha; for pest or weed control at 500 g/ha: 500 g ai/ha, visual injury, 0 to 100 scale (0 no effect, 100 complete control), approx. 10 d, read-out: Plant response rating, Kochia
Procedure, shortened: as §1

corn (Zea mays) = assay: Test A postemergence; details: Zea mays, post-emergence, 240 h; for plant injury at 125 g/ha: 125 g ai/ha; for Corn plant response rating (crop injury, 0 = no effect, 100 = complete kill) at 500 g/ha: 500 g ai/ha, visual injury, 0 to 100 scale (0 no effect, 100 complete control), approx. 10 d
Procedure, shortened: as §1

[9] = test system: pigweed (Amaranthus retroflexus); assay: Test A postemergence; details: Amaranthus retroflexus, post-emergence, 240 h; for pest or weed control at 125 g/ha: 125 g ai/ha; for pest or weed control at 500 g/ha: 500 g ai/ha, visual injury, 0 to 100 scale (0 no effect, 100 complete control), approx. 10 d, read-out: Plant response rating, Pigweed
Procedure, shortened: as §1

[10] = test system: barnyardgrass (Echinochloa crus-galli); assay: Test B flooded paddy test; details: Echinochloa crus-galli, Flood, 250 g ai/ha
Procedure, shortened: (§2)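 Response scored visually against untreated controls, 0 = no effect and 100 = complete control, 13–15 d after treatment in the greenhouse. Compounds added to paddy water held 3 cm above soil surface. Treatment given at 2-leaf stage.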

[11] = test system: ducksalad (Heteranthera limosa); assay: Test B flooded paddy test; details: Heteranthera limosa, Flood, 250 g ai/ha
Procedure, shortened: as §2

rice (Oryra sativa) = assay: Test B flooded paddy test; details: Oryza sativa, Flood, 250 g ai/ha
Procedure, shortened: as §2

[12] = test system: sedge, umbrella (small-flower umbrella sedge, Cyperus difformis); assay: Test B flooded paddy test; details: Cyperus difformis, Flood, 250 g ai/ha
Procedure, shortened: as §2

[13] = preemergence, 0 to 100 scale (0 no effect, 100 complete control), read-out: Plant response rating, Kochia
[14] = Preemergence, 0 to 100 scale (0 no effect, 100 complete control), read-out: Plant response rating, Kochia
[15] = preemergence, 0 to 100 scale (0 no effect, 100 complete control), read-out: Plant response rating, Barnyardgrass
[16] = Preemergence, 0 to 100 scale (0 no effect, 100 complete control), read-out: Plant response rating, Barnyardgrass
[17] = preemergence, 0 to 100 scale (0 no effect, 100 complete control), read-out: Plant response rating, Foxtail, Giant
[18] = Preemergence, 0 to 100 scale (0 no effect, 100 complete control), read-out: Plant response rating, Foxtail, Giant
[19] = preemergence, 0 to 100 scale (0 no effect, 100 complete control), read-out: Plant response rating, Pigweed
[20] = Preemergence, 0 to 100 scale (0 no effect, 100 complete control), read-out: Plant response rating, Pigweed
[21] = preemergence, 0 to 100 scale (0 no effect, 100 complete control), read-out: Plant response rating, Ragweed
[22] = Preemergence, 0 to 100 scale (0 no effect, 100 complete control), read-out: Plant response rating, Ragweed
[23] = preemergence, 0 to 100 scale (0 no effect, 100 complete control), read-out: Plant response rating, Ryegrass, Italian
[24] = Preemergence, 0 to 100 scale (0 no effect, 100 complete control), read-out: Plant response rating, Ryegrass, Italian
[25] = Postemergence, visual rating about 10 d after treatment, read-out: Galium plant response rating (0 to 100 scale)
[26] = Postemergence, visual rating about 10 d after treatment, read-out: Kochia plant response rating (0 to 100 scale)
[27] = Postemergence, visual rating about 10 d after treatment, read-out: Corn plant response rating (0 to 100 scale)
[28] = Postemergence, visual rating about 10 d after treatment, read-out: Pigweed plant response rating (0 to 100 scale)
[29] = 360 h, visually evaluated after 13 to 15 d, read-out: Plant response rating, Barnyardgrass (0 to 100 scale where 0 is no effect and 100 is complete control)
[30] = 360 h, visually evaluated after 13 to 15 d, read-out: Plant response rating, Ducksalad (0 to 100 scale where 0 is no effect and 100 is complete control)
[31] = 360 h, visually evaluated after 13 to 15 d, read-out: Plant response rating, Rice (0 to 100 scale where 0 is no effect and 100 is complete control)
[32] = 360 h, visually evaluated after 13 to 15 d, read-out: Plant response rating, Sedge, Umbrella (0 to 100 scale where 0 is no effect and 100 is complete control)

SMILES | pest or weed control at 500 g/ha (Kochia (Kochia scoparia) [1]; [13]) [%] | pest or weed control at 125 g/ha (Kochia (Kochia scoparia) [1]; [14]) [%] | pest or weed control at 500 g/ha [2, 15] [%] | pest or weed control at 125 g/ha [2, 16] [%] | pest or weed control at 500 g/ha [3, 17] [%] | pest or weed control at 125 g/ha [3, 18] [%] | pest or weed control at 500 g/ha [4, 19] [%] | pest or weed control at 125 g/ha [4, 20] [%] | pest or weed control at 500 g/ha [5, 21] [%] | pest or weed control at 125 g/ha [5, 22] [%] | pest or weed control at 500 g/ha [6, 23] [%] | pest or weed control at 125 g/ha [6, 24] [%] | pest or weed control at 125 g/ha [7, 25] [%] | pest or weed control at 500 g/ha ([7]; Postemergence) [%] | pest or weed control at 125 g/ha (Kochia (Kochia scoparia) [8]; [26]) [%] | pest or weed control at 500 g/ha (Kochia (Kochia scoparia) [8]; Postemergence) [%] | plant injury at 125 g/ha (corn (Zea mays); [27]) [%] | Corn plant response rating (crop injury, 0 = no effect, 100 = complete kill) at 500 g/ha (corn (Zea mays); Postemergence) [%] | pest or weed control at 125 g/ha [9, 28] [%] | pest or weed control at 500 g/ha ([9]; Postemergence) [%] | other results
CN1C[C@H](c2ccc(C(F)(F)F)nc2)[C@@H](C(=O)Nc2cccc(F)c2F)C1=O [Compound 1372] | 90 | 90 | 100 | 90 | 100 | 90 | 90 | 90 | 90 | 90 | 60 | 60 | 60 | 70 | 70 | 80 | 70 | 90 | 60 | 80 | pest or weed control at 250 g/ha [10, 29]: 80%; pest or weed control at 250 g/ha [11, 30]: 85%; pest or weed control at 250 g/ha (rice (Oryra sativa); [31]): 40%; pest or weed control at 250 g/ha [12, 32]: 0%
CO[C@]1(C(=O)Nc2cccc(F)c2F)C(=O)N(C)C[C@@H]1c1ccc(C(F)(F)F)cc1 (racemic) [Compound 1334] | 20 | 0 | 80 | 20 | 80 | 40 | 30 | 20 | 30 | 0 | 20 | 0 | 50 | 50 | 0 | 0 | 0 | 30 | 30 | 40 | pest or weed control at 250 g/ha [10, 29]: 0%; pest or weed control at 250 g/ha [11, 30]: 90%; pest or weed control at 250 g/ha (rice (Oryra sativa); [31]): 0%; pest or weed control at 250 g/ha [12, 32]: 0%
CN1C[C@H](c2cccc(C3CC3)c2)[C@@H](C(=O)Nc2ccccc2F)C1=O [Compound 815] | – | – | – | – | – | – | – | – | – | – | – | – | – | – | – | – | – | – | – | – | pest or weed control at 125 g/ha (Kochia (Kochia scoparia) [1]; preemergence, visual rating after approx. 10 d, 0 to 100 scale where 0 is no effect and 100 is complete control, read-out: Plant response rating, Kochia): 70%; pest or weed control at 500 g/ha (Kochia (Kochia scoparia) [1]; Preemergence, visual injury vs untreated controls after approximately 10 d, read-out: Kochia plant response rating (0 to 100 scale where 0 is no effect and 100 is complete control)): 80%; pest or weed control at 125 g/ha ([2]; preemergence, visual rating after approx. 10 d, 0 to 100 scale where 0 is no effect and 100 is complete control, read-out: Plant response rating, Barnyardgrass): 90%; pest or weed control at 500 g/ha ([2]; Preemergence, visual injury vs untreated controls after approximately 10 d, read-out: Barnyardgrass plant response rating (0 to 100 scale where 0 is no effect and 100 is complete control)): 100%; pest or weed control at 125 g/ha ([3]; preemergence, visual rating after approx. 10 d, 0 to 100 scale where 0 is no effect and 100 is complete control, read-out: Plant response rating, Foxtail, Giant): 90%; pest or weed control at 500 g/ha ([3]; Preemergence, visual injury vs untreated controls after approximately 10 d, read-out: Foxtail, Giant plant response rating (0 to 100 scale where 0 is no effect and 100 is complete control)): 100%; pest or weed control at 125 g/ha ([4]; preemergence, visual rating after approx. 10 d, 0 to 100 scale where 0 is no effect and 100 is complete control, read-out: Plant response rating, Pigweed): 30%; pest or weed control at 500 g/ha ([4]; Preemergence, visual injury vs untreated controls after approximately 10 d, read-out: Pigweed plant response rating (0 to 100 scale where 0 is no effect and 100 is complete control)): 50%; pest or weed control at 125 g/ha ([5]; preemergence, visual rating after approx. 10 d, 0 to 100 scale where 0 is no effect and 100 is complete control, read-out: Plant response rating, Ragweed): 0%; pest or weed control at 500 g/ha ([5]; Preemergence, visual injury vs untreated controls after approximately 10 d, read-out: Ragweed plant response rating (0 to 100 scale where 0 is no effect and 100 is complete control)): 0%; pest or weed control at 125 g/ha ([6]; preemergence, visual rating after approx. 10 d, 0 to 100 scale where 0 is no effect and 100 is complete control, read-out: Plant response rating, Ryegrass, Italian): 80%; pest or weed control at 500 g/ha ([6]; Preemergence, visual injury vs untreated controls after approximately 10 d, read-out: Ryegrass, Italian plant response rating (0 to 100 scale where 0 is no effect and 100 is complete control)): 80%; pest or weed control at 125 g/ha ([7]; postemergence, visual injury rating after approximately 10 d, read-out: Galium plant response rating (0 to 100 scale, 0 no effect, 100 complete control)): 50%; pest or weed control at 125 g/ha (Kochia (Kochia scoparia) [8]; postemergence, visual injury rating after approximately 10 d, read-out: Kochia plant response rating (0 to 100 scale, 0 no effect, 100 complete control)): 40%; plant injury at 125 g/ha (corn (Zea mays); postemergence, visual injury rating after approximately 10 d, read-out: Corn plant response rating (0 to 100 scale, 0 no effect, 100 complete control)): 50%; pest or weed control at 125 g/ha ([9]; postemergence, visual injury rating after approximately 10 d, read-out: Pigweed plant response rating (0 to 100 scale, 0 no effect, 100 complete control)): 20%; pest or weed control at 250 g/ha ([10]; scale of 0 to 100 where 0 is no effect and 100 is complete control, read-out: Barnyardgrass plant response rating): 65%; pest or weed control at 250 g/ha ([11]; scale of 0 to 100 where 0 is no effect and 100 is complete control, read-out: Ducksalad plant response rating): 75%; pest or weed control at 250 g/ha (rice (Oryra sativa); scale of 0 to 100 where 0 is no effect and 100 is complete control, read-out: Rice plant response rating): 20%; pest or weed control at 250 g/ha ([12]; scale of 0 to 100 where 0 is no effect and 100 is complete control, read-out: Sedge, Umbrella plant response rating): 0%
